Results on 8 compounds are retold here after PMC8141073, “Structurally Diverse Sesquiterpenoids with Anti-neuroinflammatory Activity from the Endolichenic Fungus Cryptomarasmius aucubae” (Natural Products and Bioprospecting, 2021).

Series [1] is described as follows: Cell viability by MTT assay. To be noted: mouse, BV-2 microglial cells, percentage of the LPS-only treatment group, compounds at 20 μM, 1 μg/mL LPS, BV-2 cells. It is filed as cell-based, murine. The procedure: BV-2 murine microglial cells, acquired from Peking Union Medical College Cell Bank, were cultured in Dulbecco’s modified Eagle’s medium supplemented with 10% (v/v) heat-inactivated fetal bovine serum, penicillin (100 U/mL), and streptomycin ([…]) in carbon dioxide cell incubator. When cell growth density outnumbered 90%, BV-2 cells were seeded in 96-well plates at a density of 2 × 10^4/well, 100 μL) and incubated for 24 h. Next, the cells were treated with the compounds (DMSO as solvent) at 20 μM for 24 h in DMEM with 1 μg/mL LPS. Cells treated with DMSO alone were used as the negative control. After adding 20 μL of 10 mg/mL MTT reagent to each well, the samples were shaken lightly and incubated at 37 °C for 4 h. The supernatant was removed, the blue-purple crystals were fully dissolved in DMSO (200 μL), and the absorbance of each well was read at 570 nm (Tecan Sunrise, Switzerland). Percentage of cell viability is calculated as: (absorbance of treated well/absorbance of control well) × 100%.

The subject of series [2] is NO production induced by LPS in BV-2 microglial cells. The experiment in a line: Nitric oxide (NO) production inhibitory assay (Griess reaction). The series is classed as cell-based, murine. To be noted: for anti-inflammatory activity (reducing the release of NO), in words / inhibition at 20 µM: LPS-induced BV-2 microglial cells; for IC50 / inhibition at 20 µM: Mus musculus; for IC50: LPS (1 μg/mL)-induced BV-2 microglial cells, 24 h, 0.1–20.0 μM, read-out: IC50, inhibition of NO production. As to the method: BV-2 cells were seeded into 96-well plates at 2 × 10^4 cells/100 μL of medium and incubated for 24 h. Then, cells were treated with 1 μg/mL of lipopolysaccharide (LPS) and various concentrations (0.1–20.0 μM) of test compounds (DMSO as solvent) for 24 h. An equal amount of DMSO and LPS were served as the controls; quercetin (J&K Scientific, Beijing, China) was taken as the positive control). The NO concentration in the medium was measured by using a Nitric Oxide Assay Kit, according to the accumulated levels of nitrite in the supernatants by a standard Griess reaction. As follows, 50 μL of the culture supernatant of BV-2 cells was reacted with 50 μL of Griess reagent I and Griess regent II successively in a 96-well plate. The absorbance at 570 nm of the mixture was measured using a microplate reader. IC50 values were calculated as the concentrations that reduced NO production by 50%. Quercetin was taken as the positive control.

Bounds are passed on as bounds.

For the compound `CC1=C2C[C@](C)(CO)C[C@@H]2C[C@@]2(C)CC[C@@]12O` [Compound 4, sterpurol A], in series [1], the viability at 24 h, 20 µM amounted to 98.7 ± 1.18%. In addition, in series [2], the “anti-inflammatory activity (reducing the release of NO), in words” value is reported as “moderate anti-inflammatory activity”; the 50% inhibitory concentration (IC50) was 15.3 ± 1.43 µM; the inhibition at 20 µM amounted to 73.1%.
For the compound `O=c1c(O)c(-c2ccc(O)c(O)c2)oc2cc(O)cc(O)c12` [Quercetin, quercetin, reference compound], in series [1], the viability at 24 h, 20 µM was 101.5 ± 0.83%. Moreover, in series [2], the concentration for half-maximal inhibition (IC50) stood at 9.75 ± 0.79 µM and at 20 µM the inhibition was 95.6%.
For the compound `CC1=CC2C(C[C@H]1O)[C@@](C)(O)CC[C@H]2C(C)C` (stereo partly drawn) [Compound 7, murolane-2α, 9β-diol-3-ene], in series [2], the IC50 is more than 20 µM and the inhibition at 20 µM came to 51.7%.
Consider `CC1=C2C[C@@](C)(C(=O)O)C[C@H]2C[C@](C)(O)C12CC2` [Compound 6, paneolilludinic acid], for which the viability at 24 h, 20 µM in series [1] was found to be 104 ± 2.67%. Besides, in series [2], the “anti-inflammatory activity (reducing the release of NO), in words” value is on record as “moderate anti-inflammatory activity”; the IC50 came out at 11.5 ± 0.58 µM; at 20 µM the inhibition was 79.1%.
The like results for `C/C(=C\CO)CC/C=C(\C)CC[C@@H](O)C(C)(C)O` [Compound 8, (–)-10,11-dihydroxyfarnesol] were, in that order, 99.12 ± 0.18%, “moderate anti-inflammatory activity”, 12.2 ± 0.4 µM and 76.8%.
On the same counts, the results for `CC(=O)O[C@@]12CC[C@]1(C)C[C@H]1C[C@@](C)(CO)CC1=C2C` [Compound 5, sterpurol B] are 107 ± 2.73%, “significant anti-inflammatory activity”, 9.06 ± 1.13 µM and 99.3%.
Take `CC(=O)OCC1(C)CC2=C(C)C3(OC(C)=O)CCC3(C)CC2C1` (centres unmarked) [Compound 1, sterpurol D]: the viability at 24 h, 20 µM in series [1] was found to be 103 ± 4.73%. Moreover, in series [2], the “anti-inflammatory activity (reducing the release of NO), in words” value was “moderate anti-inflammatory activity”; the half-inhibitory concentration (IC50) worked out at 14.8 ± 2.23 µM; 20 µM produced 75.9% inhibition.
The like results for `CC(=O)O[C@@]12C[C@H](O)[C@]1(C)C[C@H]1C[C@@](C)(CO)CC1=C2C` [Compound 2, sterpurol E] were, in that order, 97.1 ± 4%, “moderate anti-inflammatory activity”, 9.93 ± 0.99 µM and 85.4%.
